Laboratory results: US11453671B2, “Pyrazolopyrimidine inhibitors of JAK kinases and uses thereof” (Genentech, Inc., priority 2020, dated 2022)

Columns and labels:
[1] = molecular target: T1, recombinant human JAK1 kinase domain protein (Residues 854-1154) (Homo sapiens, UniProt P23458); assay: JAK1 biochemical assay (microfluidic mobility shift, peptide phosphorylation); details: 25 μM ATP, 1 nM total JAK1; read-out: Enzyme JAK1 Ki
T1 construct: human JAK1 kinase domain protein (Residues 854-1154); purchased Proteros Biostructures GmbH (Martinsried, Germany); host or cells: insect cells
T1 sequence (P23458 854-1154): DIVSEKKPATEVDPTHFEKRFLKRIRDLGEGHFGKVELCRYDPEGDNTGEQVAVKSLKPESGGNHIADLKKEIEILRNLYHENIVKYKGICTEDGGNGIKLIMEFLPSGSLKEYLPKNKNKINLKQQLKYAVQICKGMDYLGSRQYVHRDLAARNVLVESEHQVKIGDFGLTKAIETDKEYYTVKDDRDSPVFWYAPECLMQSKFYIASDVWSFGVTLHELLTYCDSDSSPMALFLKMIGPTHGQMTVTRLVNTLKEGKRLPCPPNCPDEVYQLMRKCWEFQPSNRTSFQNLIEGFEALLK
Text: JAK1 and JAK2 Biochemical Assays

[2] = Mouse lung tissue binding (equilibrium dialysis, RED); assay type: in vitro ADME; details: for Mouse LTB %: mouse lung tissue binding, % bound (Table 3)
Method: Mouse lung tissue binding. A high bound fraction or percentage of JAK1/JAK2 inhibitors to lung tissue may be undesirable since it can reduce the amount of free drug available to inhibit JAK1 or JAK2.
(a) Tissue binding experiments were performed in triplicate (n=3) using a Single-Use RED Plate by following the standard protocol. Initially, individual drugs were spiked to tissue homogenates (pH 7.4) to achieve a final concentration of 1 μM, and then 300 μL of drug-tissue homogenate mixtures were transferred to the donor wells of the RED plate which was pre-loaded with 500 μL phosphate buffer saline (133 mM) on the receiver wells. The RED plate was sealed with a gas permeable membrane and placed in a shaking incubator (450 rpm, VWR Symphony™) for 6 hr at 37° C. with 5% CO2. At the end of incubation, aliquots of 30 μL samples were taken out of the RED device and matrix equalized with an equal volume of tissue homogenates or buffer, and resulting samples were then immediately quenched with ice cold acetonitrile (sample:acetonitrile 1:4) containing either propranolol or labetalol as an internal standard. After shaking for 15 min at 500 rpm on a Thermo Scientific Compact Digital MicroPlate Shaker, all samples were then subjected to centrifugation at 3700 rpm for 15 min (Beckman Coulter Allegra X 12R) to remove plasma protein. Subsequently, supernatants were collected and then diluted with an equal volume of water prior to LC-MS/MS analysis.
(b) In an alternate procedure, the extent of lung tissue binding of test compound to mouse lung homogenate may also be determined by equilibrium dialysis using Pierce RED (rapid equilibrium dialysis) devices (Fisher Scientific 89811 & 89809). A 10 mM solution of compound in DMSO was prepared and diluted to 1 mM with DMSO. An aliquot of this 1 mM (4 μL) was added into lung homogenate (dilution factor of 1:9, lung tissue:potassium phosphate buffer (0.05 M, pH 7.4)) to give a final compound incubation concentration of 5 μM with solvent accounting for 0.5% (v/v) of the final incubation volume.
For each assay, the percentage lung tissue bound was determined in triplicate. Lung homogenate (200 μL) was loaded into one side of a RED device insert, in triplicate, and 350 μL of potassium phosphate buffer was loaded into the other side. The RED devices were sealed and incubated for 4 hours at ca. 37° C. on an orbital shaker (˜150 rpm).
Following incubation, an aliquot of lung homogenate (8 μL) and an aliquot of dialysate (72 μL) were matrix matched (lung homogenate with 72 μL phosphate buffer, dialysate with 8 μL lung homogenate) ahead of analysis. Protein was precipitated from the samples with the addition of 160 μL of acetonitrile containing internal standard. The same matrix matching and protein precipitation procedure was performed on lung homogenate aliquots sampled at the start of the experiment (t=0 min samples), for the assessment of the mass balance. The quenched samples were centrifuged (4000 rpm, 30 min, 4° C.) and the resultant supernatant diluted with water (3:1 (v/v), supernatant: water) and the samples analysed for parent compound by liquid chromatography mass spectrometry assay.
The unbound fraction (fu) in lung homogenate was determined from the ratio of the dialysate to homogenate peak area, corrected to take into account the lung homogenate dilution (D) to enable an estimate of whole lung tissue binding using the following equations: Undiluted fu=(1/D)/[((1/Apparent fu)−1)+(1/D)] Corrected fraction bound (%)=(1-undiluted fu)*100

[3] = Cell cytotoxicity assay HEK-293T (CellTiter-Glo, 72 hours); assay type: cell-based; details: human, HEK-293T cells, Table 3; 72 hours, top concentration of 50 μM; read-out: Cytotox K-293 EC50
Text: (§1) Cytotoxicity assays. Hepatocyte toxicity, general cytotoxicity or cytotoxicity of unknown mechanism is an undesirable feature for a potential drug, including inhaled drugs. It may be of benefit for an inhaled JAK1 or JAK1/JAK2 inhibitor to have low intrinsic cytotoxicity against various cell types. Typical cell types used to assess cytotoxicity include both primary cells such as human hepatocytes, and proliferating established cell lines such as Jurkat and HEK-293. […] Methods of measuring cytotoxicity are known in the art. In some embodiments, compounds described herein were tested as follows:
(§2) (a) Jurkat and HEK293T cells were maintained at a sub confluent density in T175 flasks. Cells were plated at 450 cells/45 μl medium in Greiner 384 well black/clear tissue culture treated plates. (Greiner Catalog #781091). After dispensing cells, plates were equilibrated at room temperature for 30 minutes. After 30 minutes at room temperature, cells were incubated overnight at 37° C. in a CO2 and humidity controlled incubator. The following day, cells were treated with compounds diluted in 100% DMSO (final DMSO concentration on cells=0.5%) with a 10 point dose-response curve with a top concentration of 50 μM. Cells and compounds were then incubated for 72 hours overnight at 37° C. in a CO2 and humidity controlled incubator. After 72 hours of incubation, viability was measured using CellTiterGlo® (Promega Catalog #G7572) to all wells. After incubation at room temperature for 20 minutes, plates were read on EnVision™ (Perkin Elmer Life Sciences) using luminescence mode;
(§3) A549 (ATCC® CCL-185™), Jurkat clone E6-1 (ATCC® TIB-152™) and HEK-293T (ATCC® CRL-1573™) cells maintained at a sub-confluent density in T175 flasks were used. Cells in exponential growth phase were plated (450 cells in 45 μL of medium) in Greiner 384-well black/clear tissue culture treated plates (Greiner Catalog No. 781091). After dispensing cells, plates were allowed to equilibrate at room temperature for 30 minutes, after which time the cell plates were placed overnight in a 37° C. CO2 and humidity-controlled incubator. The following day, cells were treated with test agent diluted in 100% DMSO (0.5% final DMSO concentration on cells) with a 10-point titration and a top concentration of 50 μM. Cells and compounds were then incubated for 72 hours in a 37° C. CO2 and humidity-controlled incubator, after which time cell viability was measured by adding CellTiter-Glo® (Promega G7572) reagent to all wells. Plates were incubated at room temperature for 20 minutes and then the well luminescence was read on an EnVision plate reader (Perkin Elmer Life Sciences).

[4] = Cell cytotoxicity assay Jurkat (CellTiter-Glo, 72 hours); assay type: cell-based; details: human, Jurkat clone E6-1 cells, Table 3; 72 hours, top concentration of 50 μM; read-out: Cytotox Jurkat EC50
Text: as §1, §2, §3

[5] = Cell cytotoxicity assay A549 (CellTiter-Glo, 72 hours); assay type: cell-based; details: human, A549 cells, Table 3; 72 hours, top concentration of 50 μM; read-out: Cytotox A549 EC50
Method: as §3

[6] = molecular target: Recombinant human JAK2 kinase domain protein (Residues 812-1132) (Homo sapiens, UniProt O60674); assay: JAK2 biochemical assay (microfluidic mobility shift, peptide phosphorylation); details: Enzyme JAK2 Ki (nM), 25 μM ATP, 0.2 nM total JAK2
Recombinant human JAK2 kinase domain protein (Residues 812-1132), sequence (O60674 812-1132): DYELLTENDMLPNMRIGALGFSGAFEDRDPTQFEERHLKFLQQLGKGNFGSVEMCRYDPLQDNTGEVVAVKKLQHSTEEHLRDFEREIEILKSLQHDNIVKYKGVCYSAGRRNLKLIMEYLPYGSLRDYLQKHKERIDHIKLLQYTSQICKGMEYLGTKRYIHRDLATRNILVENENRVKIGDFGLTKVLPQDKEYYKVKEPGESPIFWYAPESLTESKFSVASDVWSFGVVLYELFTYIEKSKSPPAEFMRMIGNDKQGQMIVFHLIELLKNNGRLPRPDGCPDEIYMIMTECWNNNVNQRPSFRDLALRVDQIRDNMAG
Method: The in vitro biochemical assays quantify JAK-catalyzed phosphorylation of a synthetic peptide, as detected using a LabChip® EZ Reader II microfluidic mobility shift instrument (PerkinElmer; Waltham, Mass.). […] Y-1B is fluorescently labeled on the N-terminus with 5-FAM (5-carboxyfluorescein) and contains a single tyrosine residue (Y) that can be phosphorylated by JAK activity. The substrate peptide stock is prepared in DMSO at 5 mM.
In each titration experiment, test compound was tested in duplicate at each of the twelve concentrations. Blank reactions contained ATP, peptide, and DMSO, but no JAK or test compound, whereas uninhibited control reactions contained ATP, peptide, JAK, and DMSO, but no test compound.
Peptide plus ATP mixture (24 μL) was added to 1 μL of test compound in DMSO (or DMSO alone). The reactions were initiated by adding 25 μL of JAK enzyme to the inhibitor/peptide/ATP mixture before thoroughly mixing the resultant solution. Reactions were incubated at room temperature (22° C.-23° C.) in a final volume of 50 μL per well in 384-well plates.
In each reaction, the residual Y-1B substrate and the phospho-peptide product generated were separated using the EZ Reader II instrument. Electrophoretic separation of molecules of product from molecules of substrate was achieved using downstream and upstream voltages of −500 and −2600 V, respectively, at an operating pressure of −1.3 psi.
The extent (or percent) of conversion of substrate to product was calculated from the corresponding peak heights in the electropherogram using HTS Well Analyzer software, Version 5.2 (PerkinElmer), and the following equation (Equation 1): % conversion=[P÷(S+P)]×100 Equation 1 where S and P represent the peak heights of the substrate and product, respectively. After any baseline signal from blank wells containing no JAK was subtracted from the signal of all test wells, the % conversion data were converted to fractional activity as shown in Equation 2, where vi and vo are the % conversion in the presence and absence of test compound, respectively.

SMILES	Ki [1]	Mouse LTB % [2]	Ki [6]	Lung tissue binding, % ([2]; Table 5, sulfone-sulfide analog pairs)	EC50 at 72 h [3]	EC50 at 72 h [4]	EC50 at 72 h [5]
CNS(=O)(=O)c1ccc(OC(F)F)c(-c2nn(C)cc2NC(=O)c2cnn3cccnc23)c1 [Example 26, N-[3-[2-(difluoromethoxy)-5-(methylsulfamoyl)phenyl]-1-methyl-pyrazol-4-yl]pyrazolo[1,5-a]pyrimidine-3-carboxamide]	0.00016 µM	86.9%	0.097 nM		5.8 µM	12 µM	11 µM
Cn1cc(NC(=O)c2cnn3cccnc23)c(-c2cc3c(cc2OC(F)F)NCCS3(=O)=O)n1 [Example 46, N-[3-[6-(difluoromethoxy)-1,1-dioxo-3,4-dihydro-2H-1lambda6,4-benzothiazin-7-yl]-1-methyl-pyrazol-4-yl]pyrazolo[1,5-a]pyrimidine-3-carboxamide]	0.00026 µM	89.9%	0.087 nM		≥ 50 µM	≥ 50 µM	≥ 50 µM
CN(C)CCS(=O)(=O)c1ccc(OC(F)F)c(-c2nn(C)cc2NC(=O)c2cnn3cccnc23)c1 [Example 7, N-[3-[2-(difluoromethoxy)-5-[2-(dimethylamino)ethylsulfonyl]phenyl]-1-methyl-pyrazol-4-yl]pyrazolo[1,5-a]pyrimidine-3-carboxamide]	0.00088 µM	78.8%	0.49 nM		6.9 µM	2.1 µM	4.1 µM
Cn1cc(NC(=O)c2cnn3cccnc23)c(-c2cc(S(=O)(=O)c3ccn(C)c(=O)c3)ccc2OC(F)F)n1 [Example 44, N-[3-[2-(difluoromethoxy)-5-[(1-methyl-2-oxo-4-pyridyl)sulfonyl]phenyl]-1-methyl-pyrazol-4-yl]pyrazolo[1,5-a]pyrimidine-3-carboxamide]	0.00052 µM	86.5%	0.34 nM		7 µM	11 µM	24 µM
C[C@@H](O)CS(=O)(=O)c1ccc(OC(F)F)c(-c2nn(C)cc2NC(=O)c2cnn3cccnc23)c1 (stereo in doubt) [Example 25, N-[3-[2-(difluoromethoxy)-5-[rac-(2R)-2-hydroxypropyl]sulfonyl-phenyl]-1-methyl-pyrazol-4-yl]pyrazolo[1,5-a]pyrimidine-3-carboxamide]	0.00048 µM	85%	0.2 nM		48 µM	≥ 50 µM	≥ 50 µM
CS(=O)(=O)c1ccc(OC(F)F)c(-c2nn(CC#N)cc2NC(=O)c2cnn3cccnc23)c1 [Example 28, N-[1-(cyanomethyl)-3-[2-(difluoromethoxy)-5-methylsulfonyl-phenyl]pyrazol-4-yl]pyrazolo[1,5-a]pyrimidine-3-carboxamide]	0.00024 µM	70.8%	0.14 nM	70.8%	24 µM	39 µM	≥ 50 µM
Cn1cc(NC(=O)c2cnn3cccnc23)c(-c2cc(S(=O)(=O)C3CCC3)ccc2OC(F)F)n1 [Example 2, N-[3-[5-cyclobutylsulfonyl-2-(difluoromethoxy)phenyl]-1-methyl-pyrazol-4-yl]pyrazolo[1,5-a]pyrimidine-3-carboxamide]	0.0005 µM	88.1%	0.2 nM		27.5 µM	38.5 µM	25.5 µM
COc1cccc(S(=O)(=O)c2ccc(OC(F)F)c(-c3nn(C)cc3NC(=O)c3cnn4cccnc34)c2)c1 [Example 12, N-[3-[2-(difluoromethoxy)-5-(3-methoxyphenyl)sulfonyl-phenyl]-1-methyl-pyrazol-4-yl]pyrazolo[1,5-a]pyrimidine-3-carboxamide]	0.00024 µM	97.1%	0.14 nM		36 µM	≥ 50 µM	≥ 50 µM

Continued by falling Ki [1], values first:

Ki [1]	Mouse LTB % [2]	Ki [6]	Lung tissue binding, % ([2]; Table 5, sulfone-sulfide analog pairs)	SMILES	EC50 at 72 h [3]	EC50 at 72 h [4]	EC50 at 72 h [5]
0.00063 µM	81.8%	0.21 nM		CN(CCO)S(=O)(=O)c1ccc(OC(F)F)c(-c2nn(C)cc2NC(=O)c2cnn3cccnc23)c1 [Example 73, N-(3-(2-(difluoromethoxy)-5-(N-(2-hydroxyethyl)-N-methylsulfamoyl)phenyl)-1-methyl-1H-pyrazol-4-yl)pyrazolo[1,5-a]pyrimidine-3-carboxamide]	2.9 µM	8.4 µM	≥ 50 µM
0.00022 µM	83.1%	0.14 nM		CN(C)S(=O)(=O)c1ccc(OC(F)F)c(-c2nn(C)cc2NC(=O)c2cnn3cccnc23)c1 [Example 30, N-[3-[2-(difluoromethoxy)-5-(dimethylsulfamoyl)phenyl]-1-methyl-pyrazol-4-yl]pyrazolo[1,5-a]pyrimidine-3-carboxamide]	2.4 µM	9.2 µM	6.1 µM
0.00018 µM	91.2%	0.1 nM		Cn1cc(NC(=O)c2cnn3cccnc23)c(-c2cc(S(=O)(=O)c3cn[nH]c3)ccc2OC(F)F)n1 [Example 41, N-[3-[2-(difluoromethoxy)-5-(1H-pyrazol-4-ylsulfonyl)phenyl]-1-methyl-pyrazol-4-yl]pyrazolo[1,5-a]pyrimidine-3-carboxamide]	28 µM	35 µM	≥ 50 µM
